According to patent publication US7078223B2, “Process for the preparation of pseudomonic acid a antibiotic by microbiological method” (TEVA Gyógyszergyár Zártkörüen Müködö Részvénytársaság, priority 1999, dated 2006):

Experiments:
[1] = biological target: isoleucine-tRNA synthase enzyme (Escherichia coli, UniProt P00956); conditions: affects the peptide synthesis of pathogen bacteria; cited from earlier work
[2] = both for humans and animals; cited from earlier work
[3] = tested on: Bacillus subtilis ATCC 6633; experiment: agar diffusion microbial method; type: cell-based; conditions: beef-extract-peptone-glucose agar, pH 6.5, Bacillus subtilis ATCC 6633
Experimental: The antibacterial activity of the pseudomonic acid antibiotic complex is determined by agar diffusion microbial method. The medium is a beef-extract-peptone-glucose-containing agar, its pH is 6.5 and the test organism is Bacillus subtilis ATCC 6633.

Chain of isoleucine-tRNA synthase enzyme (P00956 whole entry): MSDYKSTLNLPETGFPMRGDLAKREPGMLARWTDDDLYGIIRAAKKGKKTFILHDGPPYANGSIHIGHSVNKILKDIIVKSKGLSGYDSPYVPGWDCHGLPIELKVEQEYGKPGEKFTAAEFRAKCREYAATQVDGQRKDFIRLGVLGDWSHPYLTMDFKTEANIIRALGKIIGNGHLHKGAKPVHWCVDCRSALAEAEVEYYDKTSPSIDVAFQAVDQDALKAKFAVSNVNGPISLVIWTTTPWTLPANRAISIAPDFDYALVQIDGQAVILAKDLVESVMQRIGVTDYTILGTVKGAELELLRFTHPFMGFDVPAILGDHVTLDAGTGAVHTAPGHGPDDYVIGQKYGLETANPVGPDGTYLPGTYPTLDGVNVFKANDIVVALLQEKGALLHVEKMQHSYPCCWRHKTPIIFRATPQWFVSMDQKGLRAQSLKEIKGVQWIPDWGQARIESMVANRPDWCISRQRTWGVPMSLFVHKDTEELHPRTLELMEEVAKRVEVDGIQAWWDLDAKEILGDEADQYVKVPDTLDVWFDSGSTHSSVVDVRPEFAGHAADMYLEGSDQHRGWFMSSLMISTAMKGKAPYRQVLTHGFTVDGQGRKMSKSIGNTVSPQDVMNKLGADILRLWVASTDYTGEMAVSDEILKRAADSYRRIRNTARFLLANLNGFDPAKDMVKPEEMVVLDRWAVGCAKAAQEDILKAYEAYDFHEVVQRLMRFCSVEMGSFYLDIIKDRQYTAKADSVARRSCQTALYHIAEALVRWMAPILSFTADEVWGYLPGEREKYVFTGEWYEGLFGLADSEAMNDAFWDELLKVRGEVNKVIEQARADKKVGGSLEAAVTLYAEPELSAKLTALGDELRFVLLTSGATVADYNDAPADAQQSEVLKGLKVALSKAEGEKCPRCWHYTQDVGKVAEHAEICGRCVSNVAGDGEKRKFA

Question: For C/C(=C\C(=O)OCCCCCCCCC(=O)O)CC1OC[C@H](C[C@@H]2O[C@H]2[C@@H](C)[C@H](C)O)[C@@H](O)[C@H]1O (stereo partly drawn) [Pseudomonic acid A, 9-{4[5S(2S,3S-epoxy-5S-hydroxy-4S-methylhexyl)-3R,4R-dihydroxy-tetrahydropyran-2S-yl]-3-methylbut-2(E)-enoyloxy}nonanoic acid], which “inhibition of isoleucine-tRNA synthase enzyme” value [1] is on record?
Answer: inhibiting

Question: What about the toxicity [2] of the same compound?
Answer: very low toxicity

Question: Which “specific activity against the test-microorganism relating to the component A” value [3] does the source give for C/C(=C\C(=O)OCCCCCCCCC(=O)O)CC1OC[C@](O)(C[C@@H]2O[C@H]2[C@@H](C)[C@H](C)O)[C@@H](O)[C@H]1O (stereo partly drawn) [component B, pseudomonic acid B] here?
Answer: considerably weaker
